From patent US12517131B2, “Methods for labeling eukaryotic cells from a multicellular organism as well as for treating and/or diagnosing a cancer using modified monosaccharide compounds” (DIAMIDEX, priority 2019, dated 2026)

Experiments:
Assay in all cases: Labeling of cancer and non-cancer cells, fluorescence signal ratio
Format in all cases: cell-based, human
A431 (vs Hacat) = conditions: A431 (30 h) vs Hacat (30 h); Ara-N3 10 mM; FBS 10%; one doubling time
Experimental: (§1) The fluorescence Assimilation of Ara-N3 probes was visualized by copper-free click chemistry using sulfo-DBCO-biotin (1 mM), followed by labeling with a mouse anti-biotin Alexa Fluor 488 antibody conjugate (0.62 mg/ml stock, Jackson ImmunoResearch, dilution 1/10). The click reaction was carry-out as following: At 24 h incubation times, the culture mediums were removed, and attached cells were washed twice with PBS. Cells were detached with Tryp-LE, washed twice with PBS, and centrifuged at 13000 g for 2 min. The cellular pellets were resuspended with 10 μL of sulfo-DBCO-biotin and incubated 30 min in the dark, and at 37 C°. Then, cells were washed twice with PBS, centrifuged, and cellular pellets were resuspended with 10 μL of a mouse anti-biotin antibody solution, before to be incubated at room temperature in dark. Thereafter, cells were washed twice with PBS and small cellular suspension spots (5 μL) were put in Polysine® adhesion slides (VWR international S.A.S), in the dark room, until dry (20 min). The spots were fixed with 4% paraformaldehyde during 20 min, in dark and room temperature. Slides were then washed twice with PBS, before recovering with square cover glasses (VWR international S.A.S) using glycerol Mounting Medium (Dako) and stored at 4° C. in dark room.
(§2) The fluorescence acquisition was recorded using Olympus Microscopy IX83 (Olympus Life Science) equipped with a 60×/1.3 […]/1.4 SRI (silicone refractive index) objective, and Hamamatsu oreca flash 4 LT camera with 109 nm/pixel calibrated pixel size. The excitation light was emitted by X-CITE 120LED using the AT180/30X excited filter and signal was monitored using AT535/40m emission filter. Green light exposition time was 600 ms and white light exposition time was determined by DIC methods at […]. The acquisition area size analyzed by the Celisens dimension V1.16 software was different depending on the cell number containing in the spot.
(§3) The images were processed using count and measure unit of the Cellsens dimension V1.16 software. The background noise was deleted as follows: ROI were first defined on the background of the image and the average pixel intensity was calculated. The value thus obtained was subtracted from all pixels of the image. The fluorescence intensity of each cell was determined from a threshold set at a value of 3030. All pixels that have intensity below 3030 were not counted.
(§4) The same experiments as in example 2 with other cancer and corresponding non cancer cells were performed. The culture media were adapted to the tested cells and supplemented by 10% fetal bovine serum (FBS). Ara-N3 probe (10 mM) was added to culture media with FBS concentration (10%). The incubation times corresponded to one doubling time or twice doubling time of the tested cells (see table below).
(§5) The fluorescence signal cancer/non cancer ratios were calculated based on fluorescence intensities obtained with Ara-N3 tested on cancer and corresponding non cancer cells.

[1] = system: A549 (vs Bronchial epithelial cell); conditions: A549 (doubling time 40 h) vs Bronchial epithelial cell (40 h); Ara-N3 10 mM; FBS 10%; test at 2 doubling time
Experimental: as §1, §2, §3, §4, §5

[2] = system: AGS (vs Stomach epitelial cell); conditions: AGS (doubling time 30 h) vs Stomach epitelial cell (30 h); Ara-N3 10 mM; FBS 10%; test at 2 doubling time
Experimental: as §1, §2, §3, §4, §5

[3] = system: BL-2 (vs Isolated primary B cells); conditions: BL-2 (24 h) vs Isolated primary B cells; Ara-N3 10 mM; FBS 10%
Experimental: as §1, §2, §3, §4, §5

[4] = system: HT29 (vs Colon epithelial cell); conditions: HT29 (doubling time 40 h) vs Colon epithelial cell (40 h); Ara-N3 10 mM; FBS 10%; test at 2 doubling time
Experimental: as §1, §2, §3, §4, §5

K562 (vs Lymphocytes T) = conditions: K562 (24 h) vs Lymphocytes T (24 h); Ara-N3 10 mM; FBS 10%; one doubling time
Experimental: as §1, §2, §3, §4, §5

KCL22 (vs Lymphocytes) = conditions: KCL22 (24 h) vs Lymphocytes (24 h); Ara-N3 10 mM; FBS 10%; one doubling time
Experimental: as §1, §2, §3, §4, §5

Kasumi-1 (vs B12-F8) = conditions: Kasumi-1 (48 h) vs B12-F8 (24 h); Ara-N3 10 mM; FBS 10%; one doubling time
Experimental: as §1, §2, §3, §4, §5

MDA MB453 (vs HME-1) = conditions: MDA MB453 (30 h) vs HME-1 (30 h); Ara-N3 10 mM; FBS 10%; one doubling time
Experimental: as §1, §2, §3, §4, §5

[5] = system: MDA-MB-231 (vs Breast epithelial cell); conditions: MDA-MB-231 (doubling time 40 h) vs Breast epithelial cell (40 h); Ara-N3 10 mM; FBS 10%; test at 2 doubling time
Experimental: as §1, §2, §3, §4, §5

NAMALWA (vs B12-F8) = conditions: NAMALWA (20 h) vs B12-F8 (24 h); Ara-N3 10 mM; FBS 10%; one doubling time
Experimental: as §1, §2, §3, §4, §5

[6] = system: OCI-Ly10 (vs Isolated primary B cells); conditions: OCI-Ly10 (24 h) vs Isolated primary B cells; Ara-N3 10 mM; FBS 10%
Experimental: as §1, §2, §3, §4, §5

PANC (vs HPNE) = conditions: PANC (32 h) vs HPNE (32 h); Ara-N3 10 mM; FBS 10%; one doubling time
Experimental: as §1, §2, §3, §4, §5

RS4 (vs Lymphocytes T) = conditions: RS4 (35 h) vs Lymphocytes T (24 h); Ara-N3 10 mM; FBS 10%; one doubling time
Experimental: as §1, §2, §3, §4, §5

SK-BR-7 (vs HME-1) = conditions: SK-BR-7 (30 h) vs HME-1 (30 h); Ara-N3 10 mM; FBS 10%; one doubling time
Experimental: as §1, §2, §3, §4, §5

[7] = system: SU-DHL-4 (vs Isolated primary B cells); conditions: SU-DHL-4 (40 h) vs Isolated primary B cells; Ara-N3 10 mM; FBS 10%
Experimental: as §1, §2, §3, §4, §5

[N-]=[N+]=NC[C@H]1OC(O)[C@@H](O)[C@@H]1O (stereo partly drawn) [Ara-N3, 5-azido-5-deoxy-D-arabinofuranose]
Cancer/Non Cancer Ratio (fluorescence signal) (A431 (vs Hacat)): 17.5
Cancer/Non Cancer Ratio (fluorescence signal) [1]: 7.7
Cancer/Non Cancer Ratio (fluorescence signal) [2]: 2.9
Cancer/Non Cancer Ratio (fluorescence signal) [3]: 2.5
Cancer/Non Cancer Ratio (fluorescence signal) [4]: 13.2
Cancer/Non Cancer Ratio (fluorescence signal) (K562 (vs Lymphocytes T)): 1.6
Cancer/Non Cancer Ratio (fluorescence signal) (KCL22 (vs Lymphocytes)): 4.9
Cancer/Non Cancer Ratio (fluorescence signal) (Kasumi-1 (vs B12-F8)): 1.5
Cancer/Non Cancer Ratio (fluorescence signal) (MDA MB453 (vs HME-1)): 2.2
Cancer/Non Cancer Ratio (fluorescence signal) [5]: 2.5
Cancer/Non Cancer Ratio (fluorescence signal) (NAMALWA (vs B12-F8)): 2.3
Cancer/Non Cancer Ratio (fluorescence signal) [6]: 2.1
Cancer/Non Cancer Ratio (fluorescence signal) (PANC (vs HPNE)): 1.8
Cancer/Non Cancer Ratio (fluorescence signal) (RS4 (vs Lymphocytes T)): 1.6
Cancer/Non Cancer Ratio (fluorescence signal) (SK-BR-7 (vs HME-1)): 2.1
Cancer/Non Cancer Ratio (fluorescence signal) [7]: 2.5
